Test results taken from patent publication US9297798B2, “Therapeutic approach for polyglutamine degeneration” (The Chinese University of Hong Kong, priority 2013, dated 2016).

Experiments:
[1] = system: GRP78/BiP expression in MJDCAG78-expressing HEK293 cells; experiment: Real-time PCR of GRP78/BiP in MJDCAG78-expressing HEK293 cells; assay type: cell-based; conditions: MJDCAG78-expressing HEK293 cells (FIG. 5D)
Text: (§1) FIG. 5. Depicts the distinct stress responses induced by toxic expanded CAG-RNA and polyQ protein which can be differentiated by pre-rRNA and GRP78/BiP gene expression respectively in transgenic Drosophila and mammalian cell models. […] “dpe” denotes days post eclosion. The CAG repeat sequence of the DsRedCAG constructs is located in the 3′ UTR, thus expanded CAG RNA is produced but not expanded polyglutamine protein. Only RNA toxicity is observed in the DsRedCAG model. […] The MJDCAG constructs express both expanded CAG RNA and polyglutamine protein. […] The MJDCAA/G construct only generates polyQ protein toxicity because the continuity of the expanded CAG sequence is disrupted which disrupts RNA toxicity. (D) Real-time PCR analysis of the effects of RNA and protein toxicity peptidylic inhibitors on pre-45s rRNA and GRP78/BiP expression in an MJD disease cell model. HEK293 cells expressing a polynucleotide encoding MJDCAG78 reduced pre-45s rRNA transcription and induced GRP78/BiP expression. […] Cells expressing a polynucleotide encoding MJDCAG27 served as a control. “SCR” and “P3MT5” represent scrambled QBP1 and mutant P3 peptides respectively.

[2] = system: pre-45s rRNA transcription in MJDCAG78-expressing HEK293 cells; experiment: Real-time PCR of pre-45s rRNA in MJDCAG78-expressing HEK293 cells; assay type: cell-based; conditions: MJDCAG78-expressing HEK293 cells (FIG. 5D)
Text: as §1

DsRedCAG100 RNA toxicity = experiment: Pseudopupil assay in DsRedCAG100 Drosophila fed with peptide; assay type: in vivo; conditions: larvae fed with synthetic peptide at 100 μM until adulthood
Procedure: FIG. 3. Illustrates an in vivo reduction in expanded CAG-RNA toxicity by feeding Drosophila fly lines that overexpress DsRedCAG100 RNA with synthetic Nucleolin P3 peptide. DsRedCAG0 (A-C) and DsRedCAG100 (D-F) F1 larvae were fed with 100 μM of NCL P3 peptide until adulthood. Representative images of rhabdomeres (light-sensing organelles in eyes) taken from 1 day-old adult flies are shown. The average number of rhabdomeres per ommatidium (single eye unit of the adult flies) is shown at the bottom left hand corner of each image, and “+/−” represents s.e.m. from 3 independent sets of experiments. “NCL P3WT” represents wildtype NCL P3 peptide while “NCL P3MTc” represents mutant c NCL P3 peptide.
DsRedCAG RNA was expressed in Drosophila fly eyes. DsRedCAG0 (FIGS. 3A-C) and DsRedCAG100 (FIGS. 3D-F) using a pseudopupil assay (Chan W M, et al. 2011). F1 larvae were fed with 100 μM of NCL P3 peptides until adulthood. The overexpression caused the integrity of the internal eye structure to deteriorate, as indicated by the reduced number of rhabdomeres which are subcellular organelles responsible for phototransduction (FIG. 3D). DsRedCAG100 larvae were fed with synthetic P3MTc (FIG. 3E) or P3 (FIG. 3F) peptide at 100 μM.

polyQ protein toxicity = conditions: reported in literature, in vitro and in vivo; cited from earlier work
[3] = system: Drosophila polyQ disease model; experiment: Pseudopupil assay in transgenic Drosophila polyQ model (RNA and protein toxicities); assay type: in vivo; conditions: third instar larvae incubated with peptides (100 μM each); pseudopupil assay on 0-3 day-old adult flies
Procedure: FIG. 7. (A) A co-treatment approach to target RNA and protein toxicities of polyQ diseases. (B) The combined effect of P3 and QBP1 peptides on suppressing neurodegeneration in a transgenic Drosophila polyQ model. Third instar larvae were incubated with corresponding peptides (100 μM each). Pseudopupil assay was performed on 0-3 day-old adult flies. The average number of rhabdomeres per ommatidium (single eye unit of the adult flies) is shown at the bottom left hand corner of each image. (C) Statistical analysis of (B). “WT” and “MT5” represent wildtype and mutant P3 peptides respectively. “SCR” denotes a scrambled sequence of QBP1. * represents P<0.05; ** represents P<0.01. Error bars represent standard deviation. Because both expanded CAG RNA and polyQ protein contribute to neurotoxicity, a therapeutic strategy that simultaneously targets these toxic species would be ideal for treatment. A similar combined therapeutic approach was recently reported in cancer treatment (Suzuki, et al., 2013), indicating its therapeutic potential of this strategy. We have performed a pilot study to simultaneously target both the RNA and protein toxicities using a well-studied protein toxicity peptide QBP1 (Nagai, et al., 2000) and P3, and has obtained satisfactory suppression (FIG. 7A).

[4] = system: interaction between purified NCL and expanded CAG RNA (NCL: CAG78 RNA complex); experiment: Competition assay: GST-NCL / CAG78 RNA pull-down on glutathione beads, bound RNA by RT-PCR; assay type: binding
Text: Purified GST-nucleolin (GST-NCL) protein was purchased from Abnova (H00004691-P01), and the control GST protein was expressed and purified as previously described (Tsoi H, et al. 2011). The CAG78 (SEQ ID NO:18) and CUG78 (SEQ ID NOP:19) RNAs were synthesized from a pcDNA3.1-MJDCAG78 PCR product, using the MEGAscript kit (Ambion) with the following primer pairs: T7CAGF, 5′-TAA AC GACTCACTATAGGGAGAAGAAGCCTACTTTGAAAAA-3′ (SEQ ID NO:20) and CAGR, 5′-CTG TCC TGA TAG GTC CCG-3′ (SEQ ID NO:21) for CAG78 (SEQ ID NO:18); and T7CUGF, 5′-TAATACGACTCACTATAGGGAGAAGACACGACTATCCAGGGC-3′ (SEQ ID NO:22) and CUGR, 5′-CTT CGG ATG AAA CTT TTT-3′ (SEQ ID NO:23) for CUG78 (SEQ ID NO:19). To perform in vitro protein-RNA interaction, 50 ng of GST protein was first captured by glutathione Sepharose beads (GE Healthcare). The purified in vitro transcribed RNA (10 pmol) was allowed to bind with GST-coated glutathione Sepharose beads and the mixture was incubated at 4° C. overnight in a 500-μL reaction volume. Before elution, the protein-RNA mixture was washed three times with 1 mL of binding buffer [20 mM Hepes, pH 7.4, 150 mM NaCl, 5 mM MgCl2, 0.5% Nonidet P-40, 40 units RNAsin (Promega), and 1 mg/mL yeast tRNA (Sigma)]. Bound RNA was then extracted for RT-PCR as described in Tsoi H, et al. 2011.
These peptides were then tested for the ability to interact with expanded CAG RNA. […]

Substance	GRP78/BiP induction [1]	pre-45s rRNA transcription [2]	suppression of DsRedCAG100 RNA toxicity (pseudopupil assay score) (DsRedCAG100 RNA toxicity)	suppression of polyQ protein toxicity (polyQ protein toxicity)	suppression of neurodegeneration in Drosophila polyQ disease model [3]	disruption of the interaction between purified NCL and expanded CAG RNA, dose dependence ([4]; P3 at 10, 50, 100, 250, and 750 μM with NCL and CAG78 RNA (FIG. 1D))	interference with the interaction between purified NCL and expanded CAG RNA ([4]; Ten μM of each peptide with purified GST-NCL and CAG78 RNA (FIG. 1C))
DGKSKGIAAIEAK (synthetic nucleolin RNA recognition motif (RRM), RRM domain of nucleolin, RRM-related sequence core amino acid sequence P3MT5/MTc) [Peptide P3MT5]	did not demonstrate such suppressive effects	did not demonstrate such suppressive effects	did not exert any rescuing effect	–	–	–	–
S N W K W W P G I F D (SNWKWWPGIFD; synthetic polyQ-mediated toxicity inhibitor peptide QBP1) [reference compound]	suppressed GRP78/BiP induction	restored pre-45s rRNA transcription	–	capable of suppressing polyQ protein toxicity both in vitro and in vivo	substantial suppression	–	–
VPQNQNGKSKGYAF (synthetic nucleolin RNA recognition motif (RRM), RRM domain of nucleolin, RRM-related sequence core amino acid sequence P5) [Peptide P5]	–	–	–	–	–	able to interfere with the interaction between purified NCL and expanded CAG RNA	able to interfere with the interaction between purified NCL and expanded CAG RNA
